Results published in paper PMC5218480 (PLoS ONE, 2017).

System: MV-4-11 cells
Assay: Gene expression microarray analysis (Affymetrix PrimeView) and GSEA
Assay type: cell-based, human
Set-up: RFU PODN (11730768_x_at) / Fold change /veh PODN (11730768_x_at) / RFU LINC00158 (11744669_a_at) / Fold change /veh LINC00158 (11744669_a_at) / RFU DUSP10 (11751237_a_at) / Fold change /veh DUSP10 (11751237_a_at) / RFU ID3 (11757404_x_at) / Fold change /veh ID3 (11757404_x_at) / RFU PLEKHG5 (11737974_s_at) / Fold change /veh PLEKHG5 (11737974_s_at) / RFU LRRC4B (11730491_at) / Fold change /veh LRRC4B (11730491_at) / RFU GIMAP4 (11747438_a_at) / Fold change /veh GIMAP4 (11747438_a_at) / RFU KRT8 (11758183_x_at) / Fold change /veh KRT8 (11758183_x_at) / RFU CNN1 (11734310_a_at) / Fold change /veh CNN1 (11734310_a_at) / RFU VPS37D (11726825_at) / Fold change /veh VPS37D (11726825_at) / RFU C10orf10 (11716522_x_at) / Fold change /veh C10orf10 (11716522_x_at) / RFU KIR2DL2 /// KIR2DL4 /// KIR2DL5A /// KIR2DL5B /// KIR2DS1 /// KIR2DS2 /// KIR2DS3 /// KIR2DS4 /// KIR3DL3 /// KIR3DL3 /// KIR3DS1 (11738374_at) / Fold change /veh KIR2DL2 /// KIR2DL4 /// KIR2DL5A /// KIR2DL5B /// KIR2DS1 /// KIR2DS2 /// KIR2DS3 /// KIR2DS4 /// KIR3DL3 /// KIR3DL3 /// KIR3DS1 (11738374_at) / RFU C1QL1 (11718748_at) / Fold change /veh C1QL1 (11718748_at) / RFU TMPRSS4 (11747572_a_at) / Fold change /veh TMPRSS4 (11747572_a_at) / RFU HAMP (11756126_x_at) / Fold change /veh HAMP (11756126_x_at) / RFU RNFT2 (11725882_a_at) / Fold change /veh RNFT2 (11725882_a_at) / RFU NR4A2 (11747474_a_at) / Fold change /veh NR4A2 (11747474_a_at) / RFU ABCC12 (11746883_a_at) / Fold change /veh ABCC12 (11746883_a_at) / RFU TMEM136 (11760407_x_at) / Fold change /veh TMEM136 (11760407_x_at) / RFU CLDN22 /// WWC2 (11732394_at) / Fold change /veh CLDN22 /// WWC2 (11732394_at) / RFU HLA-DPB1 (11760878_x_at) / Fold change /veh HLA-DPB1 (11760878_x_at) / RFU SPINT1 (11716480_a_at) / Fold change /veh SPINT1 (11716480_a_at) / RFU GAP43 (11754022_s_at) / Fold change /veh GAP43 (11754022_s_at) / RFU A4GNT (11735810_at) / Fold change /veh A4GNT (11735810_at) / RFU PRB3 (11715151_x_at) / Fold change /veh PRB3 (11715151_x_at) / RFU TUBB4B (11761932_at) / Fold change /veh TUBB4B (11761932_at) / RFU CAPN14 (11732068_a_at) / Fold change /veh CAPN14 (11732068_a_at) / RFU TMCC2 (11721928_a_at) / Fold change /veh TMCC2 (11721928_a_at) / RFU IRGQ (11745062_a_at) / Fold change /veh IRGQ (11745062_a_at) / RFU FAM174B (11720279_a_at) / Fold change /veh FAM174B (11720279_a_at) / RFU TMPRSS4 (11748680_a_at) / Fold change /veh TMPRSS4 (11748680_a_at) / RFU FAM212B (11763350_a_at) / Fold change /veh FAM212B (11763350_a_at) / RFU PLEKHG5 (11743358_a_at) / Fold change /veh PLEKHG5 (11743358_a_at) / RFU ZSCAN30 (11745921_a_at) / Fold change /veh ZSCAN30 (11745921_a_at) / RFU CMKLR1 (11741424_a_at) / Fold change /veh CMKLR1 (11741424_a_at) / RFU LOC101060620 /// MAPK8IP1 (11723275_at) / Fold change /veh LOC101060620 /// MAPK8IP1 (11723275_at) / RFU SPTSSB (11747773_x_at) / Fold change /veh SPTSSB (11747773_x_at) / RFU PRSS12 (11739890_at) / Fold change /veh PRSS12 (11739890_at) / RFU BIN1 (11741810_x_at) / Fold change /veh BIN1 (11741810_x_at) / RFU WNT11 (11732464_a_at) / Fold change /veh WNT11 (11732464_a_at) / RFU C10orf10 (11716521_a_at) / Fold change /veh C10orf10 (11716521_a_at) / RFU C5orf56 (11738089_at) / Fold change /veh C5orf56 (11738089_at) / RFU CYB561 (11721691_x_at) / Fold change /veh CYB561 (11721691_x_at) / RFU ANKRD19P (11752326_a_at) / Fold change /veh ANKRD19P (11752326_a_at) / RFU OR2T12 /// OR2T33 /// OR2T8 (11738714_s_at) / Fold change /veh OR2T12 /// OR2T33 /// OR2T8 (11738714_s_at) / RFU VCAN (11748164_a_at) / Fold change /veh VCAN (11748164_a_at) / RFU JSRP1 (11732532_at) / Fold change /veh JSRP1 (11732532_at) / RFU KRTAP10-11 (11738290_x_at) / Fold change /veh KRTAP10-11 (11738290_x_at) / RFU MYO3A (11730013_a_at) / Fold change /veh MYO3A (11730013_a_at) / RFU EBF3 (11725865_a_at) / Fold change /veh EBF3 (11725865_a_at) / RFU CAMK2N1 (11719241_x_at) / Fold change /veh CAMK2N1 (11719241_x_at) / RFU C5orf56 (11738088_a_at) / Fold change /veh C5orf56 (11738088_a_at) / RFU OLFML3 (11715873_a_at) / Fold change /veh OLFML3 (11715873_a_at) / RFU LOC100653217 /// NTM (11731650_a_at) / Fold change /veh LOC100653217 /// NTM (11731650_a_at) / RFU MAPK11 (11762145_a_at) / Fold change /veh MAPK11 (11762145_a_at) / RFU FIZ1 (11724087_x_at) / Fold change /veh FIZ1 (11724087_x_at) / RFU OASL (11726364_x_at) / Fold change /veh OASL (11726364_x_at) / RFU SOX15 (11748057_x_at) / Fold change /veh SOX15 (11748057_x_at) / RFU CD79A (11719716_a_at) / Fold change /veh CD79A (11719716_a_at) / RFU HIST1H1D (11736915_at) / Fold change /veh HIST1H1D (11736915_at) / RFU CASKIN2 (11723855_a_at) / Fold change /veh CASKIN2 (11723855_a_at) / RFU LOC730098 (11760151_x_at) / Fold change /veh LOC730098 (11760151_x_at) / RFU OR4N2 (11742367_at) / Fold change /veh OR4N2 (11742367_at) / RFU PRRT2 (11749266_a_at) / Fold change /veh PRRT2 (11749266_a_at) / RFU SNX32 (11753110_a_at) / Fold change /veh SNX32 (11753110_a_at) / RFU CDHR5 (11726645_a_at) / Fold change /veh CDHR5 (11726645_a_at) / RFU RCAN1 (11760418_a_at) / Fold change /veh RCAN1 (11760418_a_at) / RFU FAM167A (11723789_a_at) / Fold change /veh FAM167A (11723789_a_at) / RFU FAM26E (11764081_at) / Fold change /veh FAM26E (11764081_at) / RFU ISYNA1 (11749810_s_at) / Fold change /veh ISYNA1 (11749810_s_at) / RFU ACY1 (11761880_at) / Fold change /veh ACY1 (11761880_at) / RFU 11764098_at / Fold change /veh 11764098_at / RFU SAMD14 (11745864_x_at) / Fold change /veh SAMD14 (11745864_x_at) / RFU NPB (11741838_a_at) / Fold change /veh NPB (11741838_a_at) / RFU TMPRSS6 (11731388_a_at) / Fold change /veh TMPRSS6 (11731388_a_at) / RFU KRTAP10-2 (11738614_at) / Fold change /veh KRTAP10-2 (11738614_at) / RFU ARHGAP8 /// PRR5-ARHGAP8 (11727945_x_at) / Fold change /veh ARHGAP8 /// PRR5-ARHGAP8 (11727945_x_at) / RFU KRTAP5-7 /// NADSYN1 (11734609_at) / Fold change /veh KRTAP5-7 /// NADSYN1 (11734609_at) / RFU RASL12 (11751679_a_at) / Fold change /veh RASL12 (11751679_a_at) / RFU CDKN2B (11736163_a_at) / Fold change /veh CDKN2B (11736163_a_at) / RFU PRF1 (11729649_at) / Fold change /veh PRF1 (11729649_at) / RFU, ZNF638 /// ZNF638-IT1 / Fold change vs veh, ZNF638 /// ZNF638-IT1 / RFU, PANK3 / Fold change vs veh, PANK3 / RFU, SH3YL1 / Fold change vs veh, SH3YL1 / RFU, ZEB2 / Fold change vs veh, ZEB2 / RFU, NRIP1 / Fold change vs veh, NRIP1 / RFU, PTTG1IP / Fold change vs veh, PTTG1IP / RFU, CAPN2 / Fold change vs veh, CAPN2 / RFU, MED14 / Fold change vs veh, MED14 / RFU, SNORA58 / Fold change vs veh, SNORA58 / RFU, C1orf63 / Fold change vs veh, C1orf63 / RFU, LRRFIP1 / Fold change vs veh, LRRFIP1 / RFU, NDUFAF7 / Fold change vs veh, NDUFAF7 / RFU, SLC12A2 / Fold change vs veh, SLC12A2 / RFU, IBTK / Fold change vs veh, IBTK / RFU, ESF1 / Fold change vs veh, ESF1 / Fold change vs veh, TMEM50B / RFU, TAOK1 / Fold change vs veh, TAOK1 / RFU, ACBD3 / Fold change vs veh, ACBD3 / RFU, TMA16 / Fold change vs veh, TMA16 / RFU, RWDD3 / Fold change vs veh, RWDD3 / RFU, BCAT1 / Fold change vs veh, BCAT1 / RFU, EDEM3 / Fold change vs veh, EDEM3 / RFU, TMEM33 / Fold change vs veh, TMEM33 / RFU, WDR75 / Fold change vs veh, WDR75 / RFU, AHCTF1 / Fold change vs veh, AHCTF1 / RFU, TFRC / Fold change vs veh, TFRC / RFU, ZDHHC17 / Fold change vs veh, ZDHHC17 / RFU, NOM1 / Fold change vs veh, NOM1 / RFU, ARL8B / Fold change vs veh, ARL8B / RFU, ZBTB11 / Fold change vs veh, ZBTB11 / RFU, TAMM41 / Fold change vs veh, TAMM41 / RFU, KIAA1704 /// LOC100996395 / Fold change vs veh, KIAA1704 /// LOC100996395 / RFU, ING1 / Fold change vs veh, ING1 / RFU, TRMT61B / Fold change vs veh, TRMT61B / RFU, FUBP3 / Fold change vs veh, FUBP3 / RFU, TP53 / Fold change vs veh, TP53 / RFU, TNKS2 / Fold change vs veh, TNKS2 / RFU, ZFP14 / Fold change vs veh, ZFP14 / RFU, ACTR2 / Fold change vs veh, ACTR2 / RFU, PPP3R1 / Fold change vs veh, PPP3R1 / RFU, PIK3R1 / Fold change vs veh, PIK3R1 / RFU, HNRNPA1 / Fold change vs veh, HNRNPA1 / RFU, RNF170 / Fold change vs veh, RNF170 / RFU, ZNF28 / Fold change vs veh, ZNF28 / RFU, RNGTT / Fold change vs veh, RNGTT / RFU, OGT / Fold change vs veh, OGT / RFU, BRD1 / Fold change vs veh, BRD1 / RFU, MARS / Fold change vs veh, MARS / RFU, ZNF655 / Fold change vs veh, ZNF655 / RFU, FAHD1 / Fold change vs veh, FAHD1 / RFU, BDP1 / Fold change vs veh, BDP1 / RFU, LRRCC1 / Fold change vs veh, LRRCC1 / RFU, ARID1A / Fold change vs veh, ARID1A / RFU, ZNF146 / Fold change vs veh, ZNF146 / RFU, ZNF330 / Fold change vs veh, ZNF330 / RFU, GPN3 / Fold change vs veh, GPN3 / RFU, C9orf123 / Fold change vs veh, C9orf123 / RFU, N4BP2L2 / Fold change vs veh, N4BP2L2 / RFU, ARFIP1 / Fold change vs veh, ARFIP1 / RFU, FAM179B / Fold change vs veh, FAM179B / RFU, BCL10 / Fold change vs veh, BCL10 / RFU, UHRF1BP1L / Fold change vs veh, UHRF1BP1L / RFU, BET1 / Fold change vs veh, BET1 / RFU, CNOT2 / Fold change vs veh, CNOT2 / RFU, ZNF268 / Fold change vs veh, ZNF268 / Fold change vs veh, ZNF507 / RFU, DGCR2 / Fold change vs veh, DGCR2 / RFU, WDSUB1 / Fold change vs veh, WDSUB1 / Fold change vs veh, HSP90B1 /// MIR3652 / RFU, ADSS / Fold change vs veh, ADSS / RFU, GK / Fold change vs veh, GK / RFU, ZNF148 / Fold change vs veh, ZNF148 / RFU, TAF9 / Fold change vs veh, TAF9 / RFU, SLC1A5 / Fold change vs veh, SLC1A5 / RFU, SLMO2 / Fold change vs veh, SLMO2 / RFU, ABCC4 / Fold change vs veh, ABCC4 / RFU, LOC101060439 /// RAP1B / Fold change vs veh, LOC101060439 /// RAP1B / RFU, RFX7 / Fold change vs veh, RFX7 / RFU, GTPBP10 / Fold change vs veh, GTPBP10 / RFU, CNEP1R1 / Fold change vs veh, CNEP1R1 / RFU, BIVM-ERCC5 /// ERCC5 / Fold change vs veh, BIVM-ERCC5 /// ERCC5 / RFU, ILF3 / Fold change vs veh, ILF3 / RFU 11762660_at / Fold change /veh 11762660_at / RFU VCAN (11757783_s_at) / Fold change /veh VCAN (11757783_s_at) / RFU DDX43 (11728927_at) / Fold change /veh DDX43 (11728927_at) / RFU KRT8 (11758188_x_at) / Fold change /veh KRT8 (11758188_x_at) / RFU NKD1 (11759106_at) / Fold change /veh NKD1 (11759106_at) / RFU SRD5A1 (11742802_a_at) / Fold change /veh SRD5A1 (11742802_a_at) / RFU TPSAB1 /// TPSB2 (11721975_s_at) / Fold change /veh TPSAB1 /// TPSB2 (11721975_s_at) / RFU GSTM3 (11746129_a_at) / Fold change /veh GSTM3 (11746129_a_at) / RFU IL23R (11737362_x_at) / Fold change /veh IL23R (11737362_x_at) / RFU TMEM51 (11727254_a_at) / Fold change /veh TMEM51 (11727254_a_at) / RFU PIWIL2 (11732686_x_at) / Fold change /veh PIWIL2 (11732686_x_at) / RFU ORM1 (11744905_x_at) / Fold change /veh ORM1 (11744905_x_at) / RFU CCDC152 (11743942_at) / Fold change /veh CCDC152 (11743942_at) / RFU ECM1 (11717891_a_at) / Fold change /veh ECM1 (11717891_a_at) / RFU IL23R (11748794_a_at) / Fold change /veh IL23R (11748794_a_at) / RFU TNFAIP8L3 (11732012_x_at) / Fold change /veh TNFAIP8L3 (11732012_x_at) / RFU MBOAT4 (11741988_at) / Fold change /veh MBOAT4 (11741988_at) / RFU 11764193_at / Fold change /veh 11764193_at / RFU TMEM53 (11763286_at) / Fold change /veh TMEM53 (11763286_at) / RFU MAGEB2 (11727129_at) / Fold change /veh MAGEB2 (11727129_at) / RFU TMEM200A (11744735_a_at) / Fold change /veh TMEM200A (11744735_a_at) / RFU CCDC152 (11751479_a_at) / Fold change /veh CCDC152 (11751479_a_at) / RFU FAM211A (11726209_a_at) / Fold change /veh FAM211A (11726209_a_at) / RFU RGS16 (11746705_a_at) / Fold change /veh RGS16 (11746705_a_at) / RFU VCAN (11755009_s_at) / Fold change /veh VCAN (11755009_s_at) / RFU RHOB (11743442_s_at) / Fold change /veh RHOB (11743442_s_at) / RFU RGS16 (11720943_a_at) / Fold change /veh RGS16 (11720943_a_at) / RFU RGS16 (11720944_at) / Fold change /veh RGS16 (11720944_at) / RFU, VPS4B / Fold change vs veh, VPS4B / RFU, CREB1 / Fold change vs veh, CREB1 / RFU, DNAJC13 / Fold change vs veh, DNAJC13 / RFU, GNAQ / Fold change vs veh, GNAQ / RFU, CDK5R1 / Fold change vs veh, CDK5R1 / RFU, ZRANB3 / Fold change vs veh, ZRANB3 / RFU, CUL4A / Fold change vs veh, CUL4A / RFU, CCNY / Fold change vs veh, CCNY / RFU, UFL1 / Fold change vs veh, UFL1 / RFU, COG3 / Fold change vs veh, COG3 / RFU, DIAPH2 / Fold change vs veh, DIAPH2 / RFU, SKA2 / Fold change vs veh, SKA2 / RFU, AFF3 / Fold change vs veh, AFF3 / RFU, LMF1 / Fold change vs veh, LMF1 / RFU, IPO11 / Fold change vs veh, IPO11 / RFU, DFFB / Fold change vs veh, DFFB / RFU, FOXP1 / Fold change vs veh, FOXP1 / RFU, CARD8 / Fold change vs veh, CARD8 / RFU, STRN3 / Fold change vs veh, STRN3 / RFU, ADK / Fold change vs veh, ADK / RFU, RASSF2 / Fold change vs veh, RASSF2 / RFU, WIPF1 / Fold change vs veh, WIPF1 / RFU, LARP1B / Fold change vs veh, LARP1B / RFU, RASA1 / Fold change vs veh, RASA1 / RFU, RB1 / Fold change vs veh, RB1 / RFU, PPFIA1 / Fold change vs veh, PPFIA1 / RFU, MAT2A / Fold change vs veh, MAT2A / RFU, CCT5 / Fold change vs veh, CCT5 / RFU, WDR92 / Fold change vs veh, WDR92 / RFU, CUX1 / Fold change vs veh, CUX1 / RFU, TTC7A / Fold change vs veh, TTC7A / RFU, TMEM135 / Fold change vs veh, TMEM135 / RFU, DEPTOR / Fold change vs veh, DEPTOR / RFU, CPM / Fold change vs veh, CPM / RFU, DNAJB6 / Fold change vs veh, DNAJB6 / RFU, CACNA2D3 / Fold change vs veh, CACNA2D3 / RFU, DTX4 / Fold change vs veh, DTX4 / RFU, TFCP2 / Fold change vs veh, TFCP2 / RFU, GMCL1 /// GMCL1P1 / Fold change vs veh, GMCL1 /// GMCL1P1 / RFU, AEBP2 / Fold change vs veh, AEBP2 / RFU, SNHG1 /// SNORD22 /// SNORD25 /// SNORD26 /// SNORD27 /// SNORD28 /// SNORD29 /// SNORD31 / Fold change vs veh, SNHG1 /// SNORD22 /// SNORD25 /// SNORD26 /// SNORD27 /// SNORD28 /// SNORD29 /// SNORD31 / Fold change (Aza/veh), C12orf56 (ProbeSet 11735607_a_at) / Fold change (ACY-1035/veh), C12orf56 (ProbeSet 11735607_a_at) / Fold change (Aza/veh), FGFR1OP (ProbeSet 11751329_s_at) / Fold change (ACY-1035/veh), FGFR1OP (ProbeSet 11751329_s_at) / Fold change (Aza/veh), VPS36 (ProbeSet 11739960_a_at) / Fold change (ACY-1035/veh), VPS36 (ProbeSet 11739960_a_at) / RFU SYPL1 (11715823_x_at) / Fold change /veh SYPL1 (11715823_x_at) / RFU IGFBP7 (11715501_s_at) / Fold change /veh IGFBP7 (11715501_s_at) / RFU REEP3 (11722064_at) / Fold change /veh REEP3 (11722064_at) / RFU IGLL1 (11728026_x_at) / Fold change /veh IGLL1 (11728026_x_at): dose or concentration left out as unconfirmed
Conditions: MV-4-11 cells, 48 hours

**Q.** For `Nc1ccc(-c2cccs2)cc1NC(=O)c1ccc2c(c1)cc(C1CC1)n2CCN1CCOCC1` [ACY-1035], which “RFU HLA-DPB1 (11760878_x_at)” value is on record?
**A.** The value was 21.61 RFU.
